# Measured values reported in patent EP0869784B1, “INHIBITION OF FATTY ACID SYNTHASE AS A MEANS TO REDUCE ADIPOCYTE MASS” (THE JOHNS HOPKINS UNIVERSITY, priority 1995, dated 1997).
# Tests used:
# [1] = system: hepatic fatty acid synthesis; experiment: In vivo metabolic labeling with [U-3H]-acetate, liver fatty acid synthesis; set-up: species or system mice
# Procedure: (§1) Fatty acid synthesis was measured using metabolic labeling in vivo with [U-^3H]-acetate as described in Pizer, et al., 1996, Cancer Res., 56:1189-1193.
# Thus, the reversible cerulenin-induced weight loss may be the result of fatty acid synthesis inhibition as well as decreased appetite in the mice.
# (§2) HL60 cells were labeled with [U^14C]-acetate in the presence of 10 µg/ml C-75; cells were incubated in 5% CO2 at 37°C. Results are plotted in Figure 3; each time point was performed in triplicate, error bars are the standard deviation.
# FAS = FAS (Homo sapiens, UniProt P49327); experiment: FAS activity in hypotonic lysate of OVCAR-3 ascites cells (malonyl-CoA dependent oxidation of NADPH at 340 nm); assay type: biochemical
# From the text: Compounds which inhibit FAS can be identified by testing the ability of a compound to inhibit fatty acid synthase activity using purified enzyme. Fatty acid synthase activity can be measured spectrophotometrically based on the oxidation of NADPH, or radioactively by measuring the incorporation of radiolabeled acetyl- or malonyl-CoA. (Dils, et al, Methods Enzymol, 35:74-83). FAS inhibitors are exemplified in U.S. patent application 08/188,425 and International patent publication WO 94/02108, both of which are incorporated herein by reference.
# [2] = system: HL60 human promyelocytic leukemia cells; experiment: [U14C]-acetate incorporation by HL60 cells; assay type: cell-based; conditions: 10 µg/ml, time dependent, Figure 3
# Procedure: as §2
# [3] = C-75-induced weight loss in OVCAR-3 xenograft mice, pilot study (Example 6); assay type: in vivo; conditions: 60 mg/kg on days 1, 3, and 5
# Procedure: C-75 was tested in vivo in a pilot study against the OVCAR-3 xenograft model of Example 4. Ten mice were inoculated intraperitoneally with 10^7 OVCAR-3 cells. The mice were treated on days 1, 3, and 5 with either DMSO or 60 mg/kg C-75. Results are plotted in Figure 4. C-75 treated mice experienced a 20% reduction in weight loss by day eight. Animals regained their original weight by day 15, increased their weight to nearly 110% of original body weight by day 24, and achieved original body weight by day 34.
# [4] = system: HL60 human promyelocytic leukemia cells; experiment: HL60 viable cell count with or without palmitate (fatty acid rescue); assay type: cell-based; conditions: 2.5 ug/ml; palmitate 80 micromolar; viable cells by trypan blue exclusion, Figure 5
# Procedure: Suitable FAS inhibitors may be identified by a simple test exemplified in Example 7, and in U.S. patent application 08/188,425. Generally, this test uses a tumor cell line in which an FAS inhibitor, typically cerulenin, is cytotoxic. Such cell lines include SKBR-3, ZR-75-1, and preferably HL60. Suitable FAS inhibitors will inhibit growth of such cell lines, but the cells are rescued by exogenous supply of the product of the FAS enzyme (fatty acid). When cell growth is measured in the presence and absence of exogenous fatty acid (e.g., palmitate or oleate), inhibition by specific FAS inhibitors is relieved by the fatty acid.
# 200,000 HL60 cells were plated in 24-well plates in 1 ml fatty acid free medium with or without palmitate (80 micromolar, complexed to fatty acid free albumin 0.2:1). Cells were treated with 2.5 ug/ml of C-75. Cells were incubated in 5% CO2 at 37°C and viable cells were counted with trypan blue exclusion at 24, […], 72, and 96 hours. Results are plotted in Figure 5; each time point was performed in triplicate, error bars are the standard deviation. […] Note that palmitate alone causes some suppression of HL60 proliferation.
# [5] = C-75-induced weight loss in nude mice inoculated with OVCAR-3 cells (Examples 8 and 9); assay type: in vivo
# Procedure: (§3) 20 nude mice (Harland) mice were inoculated on Day 0 with 0.1 ml packed OVCAR-3 cells. 10 mice received transisomer of C-75 (20 mg/kg) in 100 ul RPMI on days 1, 3, and 5. 10 mice received 100 ul of RPMI i.p. alone on days 1, 3, and 5. Animals were weighed on days indicated on Figure 6. Animals were sacrificed when 30% increase in body weight occurred from tumor growth.
# (§4) This indicates a dose response to the anti-tumor effect of C-75.
# OVCAR-3 cells = experiment: Survival of nude mice inoculated with OVCAR-3 cells (Examples 8 and 9); assay type: in vivo
# Procedure: as §3, §4
# [6] = Cerulenin-induced weight loss in athymic nude mice (Example 2), with necropsy from a parallel experiment; assay type: in vivo
# Procedure: Athymic mice received 60 mg/kg cerulenin i.p. in 25% DMSO/saline or vehicle alone each day for 1 week. The animal weights were recorded every two days up to day 15. Average animal weight for both groups of mice is plotted against treatment day in Figure 1. Error bars represent standard error of the mean. […] In addition there was a 28% reduction of feces mass in the cerulenin-treated group consistent with deceased food intake.
# [7] = Cerulenin-induced weight loss in nude mice with OVCAR-3 xenografts (Example 3); assay type: in vivo, Athymic mice; conditions: 80 mg/kg i.p. for 1 week
# Procedure: Cerulenin was administered as described in Example 2 above to mice which received 10^7 OVCAR-3 human ovarian cancer cells. Athymic mice received 0.1 ml of packed NIH-OVCAR-3 cells (approximately […]) intraperitoneally on treatment day 0. Beginning on day 1, treated mice received 80 mg/kg cerulenin i.p. in 25% DMSO/saline for 1 week, while untreated mice received vehicle alone. […] Weight loss constitutes the major toxicity observed during fatty acid synthesis inhibition therapy with cerlenin; the mice regained inception body mass within 10 days following treatment.
# [8] = system: OVCAR-3 ascites tumor fatty acid synthesis; experiment: In vivo metabolic labeling with [U-3H]-acetate, tumor fatty acid synthesis; set-up: species or system mice
# Procedure: as §1
# [9] = Half life of the drug in ascites; set-up: species or system mice; conditions: mouse, in vivo, ip
# [10] = 60 mg/kg i.p. each day for 1 week
# Sequence of FAS (P49327 whole entry): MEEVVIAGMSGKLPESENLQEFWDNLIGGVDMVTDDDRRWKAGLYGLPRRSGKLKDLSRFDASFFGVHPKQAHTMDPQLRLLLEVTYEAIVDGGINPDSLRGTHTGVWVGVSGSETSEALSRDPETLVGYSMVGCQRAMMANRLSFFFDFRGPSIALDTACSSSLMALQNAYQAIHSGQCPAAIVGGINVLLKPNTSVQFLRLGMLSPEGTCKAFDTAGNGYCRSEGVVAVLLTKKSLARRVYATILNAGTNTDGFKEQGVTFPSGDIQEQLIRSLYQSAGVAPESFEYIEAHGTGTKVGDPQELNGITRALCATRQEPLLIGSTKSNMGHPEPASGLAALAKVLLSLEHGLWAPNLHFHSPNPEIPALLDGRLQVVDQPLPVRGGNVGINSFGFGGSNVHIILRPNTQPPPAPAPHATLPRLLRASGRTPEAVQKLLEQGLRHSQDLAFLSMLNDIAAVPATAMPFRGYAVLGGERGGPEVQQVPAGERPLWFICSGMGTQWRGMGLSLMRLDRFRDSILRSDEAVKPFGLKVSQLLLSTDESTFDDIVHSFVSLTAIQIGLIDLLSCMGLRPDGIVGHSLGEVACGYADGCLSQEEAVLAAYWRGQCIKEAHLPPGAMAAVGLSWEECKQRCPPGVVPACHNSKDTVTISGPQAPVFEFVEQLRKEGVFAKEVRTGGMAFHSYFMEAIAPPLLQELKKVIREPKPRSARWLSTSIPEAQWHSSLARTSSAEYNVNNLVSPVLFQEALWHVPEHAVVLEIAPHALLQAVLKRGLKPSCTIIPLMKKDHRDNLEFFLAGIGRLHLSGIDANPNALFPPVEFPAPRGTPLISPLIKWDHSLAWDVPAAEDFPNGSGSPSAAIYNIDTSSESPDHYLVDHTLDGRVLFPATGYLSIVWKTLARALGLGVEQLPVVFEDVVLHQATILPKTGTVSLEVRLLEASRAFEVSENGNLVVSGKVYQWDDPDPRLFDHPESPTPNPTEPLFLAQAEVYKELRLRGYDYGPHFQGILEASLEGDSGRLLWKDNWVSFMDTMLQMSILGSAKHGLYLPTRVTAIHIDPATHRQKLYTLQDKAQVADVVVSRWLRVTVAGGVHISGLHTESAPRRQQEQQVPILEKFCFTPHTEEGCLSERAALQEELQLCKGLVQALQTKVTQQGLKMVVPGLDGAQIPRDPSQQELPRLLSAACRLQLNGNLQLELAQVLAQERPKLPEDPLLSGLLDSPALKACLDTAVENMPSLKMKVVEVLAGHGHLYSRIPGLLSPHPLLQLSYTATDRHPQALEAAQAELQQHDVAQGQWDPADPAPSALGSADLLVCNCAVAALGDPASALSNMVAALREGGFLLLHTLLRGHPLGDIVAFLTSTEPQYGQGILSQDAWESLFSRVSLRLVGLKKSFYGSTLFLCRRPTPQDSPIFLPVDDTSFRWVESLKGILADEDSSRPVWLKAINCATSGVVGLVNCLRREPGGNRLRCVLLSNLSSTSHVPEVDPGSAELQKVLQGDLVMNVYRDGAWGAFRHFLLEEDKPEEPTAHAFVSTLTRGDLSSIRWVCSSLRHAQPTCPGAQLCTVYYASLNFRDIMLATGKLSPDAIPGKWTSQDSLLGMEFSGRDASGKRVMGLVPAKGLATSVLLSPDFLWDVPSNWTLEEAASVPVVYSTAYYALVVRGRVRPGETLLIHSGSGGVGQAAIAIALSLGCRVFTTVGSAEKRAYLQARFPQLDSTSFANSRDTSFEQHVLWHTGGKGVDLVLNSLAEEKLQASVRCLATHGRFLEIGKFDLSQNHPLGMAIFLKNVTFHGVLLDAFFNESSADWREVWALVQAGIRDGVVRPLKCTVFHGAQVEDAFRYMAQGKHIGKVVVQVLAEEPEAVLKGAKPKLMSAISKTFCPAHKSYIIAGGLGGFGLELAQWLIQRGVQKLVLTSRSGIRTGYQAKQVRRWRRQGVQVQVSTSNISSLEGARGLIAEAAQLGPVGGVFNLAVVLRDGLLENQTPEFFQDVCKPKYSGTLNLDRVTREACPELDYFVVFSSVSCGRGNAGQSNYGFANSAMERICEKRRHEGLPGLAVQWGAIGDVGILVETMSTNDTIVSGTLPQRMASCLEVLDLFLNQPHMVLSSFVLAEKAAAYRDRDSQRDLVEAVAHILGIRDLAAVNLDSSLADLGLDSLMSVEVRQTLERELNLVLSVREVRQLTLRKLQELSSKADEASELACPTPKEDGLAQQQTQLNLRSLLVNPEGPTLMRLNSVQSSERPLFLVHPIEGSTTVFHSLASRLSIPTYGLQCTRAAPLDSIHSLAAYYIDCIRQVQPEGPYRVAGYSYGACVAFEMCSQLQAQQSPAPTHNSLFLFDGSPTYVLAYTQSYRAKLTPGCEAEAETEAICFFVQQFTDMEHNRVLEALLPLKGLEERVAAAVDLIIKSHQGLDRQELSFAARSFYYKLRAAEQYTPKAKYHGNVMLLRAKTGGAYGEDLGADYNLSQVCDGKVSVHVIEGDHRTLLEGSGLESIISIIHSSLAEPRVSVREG
structure (smiles),measurement,setting,value
"C=C1C(=O)O[C@@H](CCCCCCCC)[C@@H]1C(=O)O (relative stereo) [Example C-75, trans-Tetrahydro-3-methylene-2-oxo-5-n-octyl-4-furancarboxylic acid]",reduction of [U-3H] acetate incorporation into fatty acids in mouse liver,[1]; pilot in vivo metabolic labeling studies,30%
same,reduction of FAS activity compared to control lysate,"FAS; 50 µg/ml, 37 °C, 180 min",3 fold
same,FAS activity,"FAS; 50 µg/ml, 37 °C, 180 min, control 5.6",1.8 nM NADPH oxidized/min
same,effect of incubation at 4°,FAS; incubation at 4°,abolishes the inhibitory effect
same,reduction in fatty acid synthesis (label incorporation into phospholipids),[2],nearly a three-fold reduction
same,day by which original body weight was achieved again after the increase,[3],≤ 34 days
same,day by which original weight was regained,[3],≤ 15 days
same,weight relative to original body weight,[3]; by day 24,~110%
same,body weight loss,[3]; by day eight,20%
same,rescue from growth inhibition by exogenous fatty acid,[4],palmitate rescues HL60 cells from C-75
same,weight loss in mice,"[5]; 20 mg/kg on days 1, 3, and 5, Figure 6",causes weight loss
same,average maximum weight loss,"[5]; only one dose, on day 3",about 3 grams
same,survival of the xenograft,"OVCAR-3 cells; 20 mg/kg on days 1, 3, and 5, p=0.001 Wilcoxon and Mantel",increased survival
same,survival,"OVCAR-3 cells; only one dose, wilcoxon p=0.56, Mantel p=0.52","trend showing increased survival, but it was not statistically significant"
C/C=C/C/C=C/CCC(=O)[C@H]1O[C@H]1C(N)=O [cerulenin],Water intake,[6]; [10],not appreciable altered
same,reduction of feces mass,[6]; [10],28%
same,weight relative to original weight,"[6]; 60 mg/kg i.p. each day for 1 week, by day 14",96%
same,average loss of weight,"[6]; 60 mg/kg i.p. each day for 1 week, by day eight",28%
same,Observation of the mice (activity),[6]; during the period of maximal weight loss,normal activity
same,"Liver, microscopically","[6]; necropsy, parallel experiment",unremarkable without necrosis or inflammation
same,"muscle mass, histologically","[6]; necropsy, parallel experiment",no decrease in muscle mass was detected histologically
same,Necropsy: fat deposits,[6]; parallel experiment,markedly decreased subcutaneous fat and abdominal fat deposits
same,time to regain inception body mass following treatment,[7],≤ 10 days
same,"urinalysis, diabetogenic effect",[7],failed to demonstrate any diabetogenic effect
same,mean weight loss of original body mass,[7]; during the treatment period,25%
same,inhibition with high dose over standard dose,[8]; high dose 6mg/mouse versus standard dose 2mg/mouse,No augmentation of inhibition
same,reduction of OVCAR-3 ascites tumor fatty acid synthesis,[8]; intraperitoneal administration as in Example 3,43%
same,effect on mean hepatic fatty acid synthesis,"[1]; mice with OVCAR-3 ascites tumor, intraperitoneal administration",no effect
same,inhibition of fatty acid synthesis in liver,"[1]; mice without tumor, parallel experiments",~50%
same,half-life,[9],< 15 min
